Type in all cases: in vivo
The subject of data set [1] is Western Flower Thrips (Frankliniella occidentalis). Kind of data set: Test D: control of Western Flower Thrips, sprayed Soleil bean plant. Particulars: held for 7 days. As to the method: (§1) Test compounds were formulated using a solution containing 10% acetone, 90% water and 300 ppm X-77® Spreader Lo-Foam Formula non-ionic surfactant containing alkylarylpolyoxyethylene, free fatty acids, glycols and isopropanol (Loveland Industries, Inc. Greeley, Colo., USA). The formulated compounds were applied in 1 mL of liquid through a SUJ2 atomizer nozzle with ⅛ JJ custom body (Spraying Systems Co. Wheaton, Ill., USA) positioned 1.27 cm (0.5 inches) above the top of each test unit. Test compounds were sprayed at the rates indicated, and each test was replicated three times.
For evaluating control of Western Flower Thrips (Frankliniella occidentalis) through contact and/or systemic means, the test unit consisted of a small open container with a 5-7-day-old Soleil bean plant inside.
Test compounds were formulated and sprayed at 250 and/or 50 ppm. After spraying, the test units were allowed to dry for 1 hour, and then 22-27 adult thrips were added to the unit. A black, screened cap was placed on the top of each test unit, and the test units were held for 7 days at 25° C. and 45-55% relative humidity.

In data set [2] the test system is cotton melon aphid (Aphis gossypii (Glover)). Kind of data set: Test B: control of cotton melon aphid, foliar spray on pre-infested cotton plant. Particulars: 144 h, assessed after 6 days; for mortality at 50 ppm: sprayed at 50 ppm; for mortality at 250 ppm: sprayed at 250 ppm. Here is the method: as §1
For evaluating control of cotton melon aphid (Aphis gossypii (Glover)) through contact and/or systemic means, the test unit consisted of a small open container with a 6-7-day-old cotton plant inside. This was pre-infested with 30-40 insects on a piece of leaf according to the cut-leaf method, and the soil of the test unit was covered with a layer of sand.
Test compounds were formulated and sprayed at 250 and/or 50 ppm. After spraying, the test units were maintained in a growth chamber for 6 days at 19° C. and 70% relative humidity. Each test unit was then visually assessed for insect mortality.

Data set [3] relates to green peach aphid (Myzus persicae (Sulzer)). Kind of data set: Test A: control of green peach aphid, foliar spray on pre-infested radish plant. Particulars: 144 h, assessed after 6 days; for mortality at 50 ppm: sprayed at 50 ppm; for mortality at 250 ppm: sprayed at 250 ppm. As to the method: as §1
For evaluating control of green peach aphid (Myzus persicae (Sulzer)) through contact and/or systemic means, the test unit consisted of a small open container with a 12-15-day-old radish plant inside. This was pre-infested by placing on a leaf of the test plant 30-40 aphids on a piece of leaf excised from a culture plant (cut-leaf method). The aphids moved onto the test plant as the leaf piece desiccated. After pre-infestation, the soil of the test unit was covered with a layer of sand.
Test compounds were formulated and sprayed at 250 and/or 50 ppm. After spraying of the formulated test compound, each test unit was allowed to dry for 1 hour and then a black, screened cap was placed on top. The test units were held for 6 days in a growth chamber at 19-21° C. and 50-70% relative humidity. Each test unit was then visually assessed for insect mortality.

For data set [4], the system named is sweetpotato whitefly (Bemisia tabaci (Gennadius)). Kind of data set: Test E: control of sweetpotato whitefly, sprayed cotton plant infested with eggs. Particulars: 312 h, assessed after 13 days; for mortality at 250 ppm: sprayed at 250 ppm. As to the method:
as §1
For evaluating control of the sweetpotato whitefly (Bemisia tabaci (Gennadius)) through contact and/or systemic means, the test unit consisted of a small open container with a 12-14-day-old cotton plant inside. Prior to the spray application, both cotyledons were removed from the plant, leaving one true leaf for the assay. Adult whiteflies were allowed to lay eggs on the plant and then were removed from the test unit. Cotton plants infested with at least 15 eggs were submitted to the test for spraying.
Test compounds were formulated and sprayed at 250 and/or 50 ppm. After spraying, the test units were allowed to dry for 1 hour. The cylinders were then removed, and the units were taken to a growth chamber and held for 13 days at 28° C. and 50-70% relative humidity. Each test unit was then visually assessed for insect mortality.

Data set [5] deals with potato leafhopper (Empoasca fabae). Kind of data set: Test C: control of potato leafhopper, sprayed Soleil bean plant, post-infested. Particulars: assessed after 6 days. Here is the method: as §1
For evaluating control of potato leafhopper (Empoasca fabae) through contact and/or systemic means, the test unit consisted of a small open container with a 5-6-day-old Soleil bean plant (primary leaves emerged) inside. White sand was added to the top of the soil and one of the primary leaves was excised prior to application.
Test compounds were formulated and sprayed at 250 ppm and/or 50 ppm. After spraying, the test units were allowed to dry for 1 h before they were post-infested with 5 potato leafhoppers (18-21-day-old adults). A black, screened cap was placed on the top of each test unit, and the test units were held for 6 days in a growth chamber at 24° C. and 70% relative humidity. Each test unit was then visually assessed for insect mortality.

Structures are written as SMILES.

For `CSCCC(=O)c1cccc2nn(-c3cccnc3)cc12` [Compound 2, 3-(methylthio)-1-[2-(3-pyridinyl)-2H-indazol-4-yl]-1-propanone], in data set [1] (sprayed at 50 ppm), the “control efficacy (plant damage and/or mortality)” value is reported as 40% or less plant damage and/or 100% mortality. In addition, the mortality at 50 ppm in data set [2] and in data set [3] was at least 80% each time.

Turning to `CSCCC(=O)c1ccc2nn(-c3cccnc3)cc2c1` [Compound 31], the “control efficacy (plant damage and/or mortality)” value in data set [1] (sprayed at 50 ppm) was 40% or less plant damage and/or 100% mortality.

In the case of `COCNCCC(=O)c1ccc2nn(-c3cccnc3)cc2c1` [Compound 32, 3-(methoxymethylamino)-1-[2-(3-pyridinyl)-2H-indazol-5-yl]-1-propanone], the “control efficacy (plant damage and/or mortality)” value in data set [1] (sprayed at 250 ppm) is 40% or less plant damage and/or 100% mortality. Moreover, the mortality at 250 ppm in data set [2] and in data set [3] was at least 80% in each case. For the same compound, the mortality at 50 ppm in data set [3] is at least 80%.

`FC(F)(F)c1ccc(Oc2ccc3nn(-c4cccnc4)cc3c2)cc1` [Compound 35]: in data set [1] (sprayed at 250 ppm), the “control efficacy (plant damage and/or mortality)” value was 40% or less plant damage and/or 100% mortality.

`CC(C)NC(=O)Cc1ccc2nn(-c3cccnc3)cc2c1` [Compound 38, N-(1-methylethyl)-2-(3-pyridinyl)-2H-indazole-5-acetamide]: the “control efficacy (plant damage and/or mortality)” value in data set [1] (sprayed at 250 ppm) is given as 40% or less plant damage and/or 100% mortality. In addition, in data set [2], the mortality at 50 ppm is at least 80% and the mortality at 250 ppm was at least 80%. Further, in data set [3], the mortality at 50 ppm is at least 80% and the mortality at 250 ppm was at least 80%.

Consider `O=C(Cc1ccc2nn(-c3cccnc3)cc2c1)NCC(F)(F)F` [Compound 41], for which, in data set [1] (sprayed at 250 ppm), the “control efficacy (plant damage and/or mortality)” value is 40% or less plant damage and/or 100% mortality.

Consider `c1cnc(Oc2ccc3nn(-c4cccnc4)cc3c2)nc1` [Compound 42, 2-(3-pyridinyl)-5-(2-pyrimidinyloxy)-2H-indazole], for which, in data set [2], the mortality at 50 ppm is at least 80% and the mortality at 250 ppm was at least 80%. In data set [3], this compound had a mortality at 50 ppm of at least 80% and a mortality at 250 ppm of at least 80%.

In the case of `O=C(NCC(F)(F)F)C(=O)c1ccc2nn(-c3cccnc3)cc2c1` [Compound 48, α-oxo-2-(3-pyridinyl)-N-(2,2,2-trifluoroethyl)-2H-indazole-5-acetamide], the mortality at 250 ppm in data set [2] was at least 80%. Besides, in data set [3], the mortality at 50 ppm is at least 80% and the mortality at 250 ppm was at least 80%.

Regarding `CC(C)COc1ccc2nn(-c3cccnc3)cc2c1` [Compound 54, 5-(2-methylpropoxy)-2-(3-pyridinyl)-2H-indazole], the mortality at 50 ppm was at least 50% in data set [4] (sprayed at 50 ppm), at least 80% in data set [2] and at least 80% in data set [3]. The mortality at 250 ppm is at least 50% in data set [4], at least 80% in data set [2] and at least 80% in data set [3].

In the case of `CC(C)NC(=O)Cc1ccc2nn(-c3cncc(F)c3)cc2c1` [Compound 56], the “control efficacy (mortality)” value in data set [5] (sprayed at 50 ppm) and in data set [5] (sprayed at 250 ppm) was at least 80% in each case.

For `CC(C(=O)NCc1ncccn1)c1ccc2nn(-c3cccnc3)cc2c1` (stereo not drawn) [Compound 59, α-methyl-2-(3-pyridinyl)-N-(2-pyrimidinylmethyl)-2H-indazole-5-acetamide], the values for the mortality at 250 ppm in data set [4], in data set [2] and in data set [3] were at least 50%, at least 80% and at least 80%, respectively. Besides, the mortality at 50 ppm in data set [2] and in data set [3] was at least 80% each time.

In the case of `CC(C(=O)NC(C)(C)C#N)c1ccc2nn(-c3cccnc3)cc2c1` (stereo not drawn) [Compound 85, N-(1-cyano-1-methylethyl)-α-methyl-2-(3-pyridinyl)-2H-indazole-5-acetamide], the values for the mortality at 250 ppm in data set [4], in data set [2] and in data set [3] were at least 50%, at least 80% and at least 80%, respectively. For the same compound, the mortality at 50 ppm in data set [2] and in data set [3] was at least 80% each time.

The record behind these values is patent US10647692B2, “Heterocycle-substituted bicyclic azole pesticides” (FMC Corporation, priority 2015, dated 2020).
